Patent US6458793B1, “Heterocyclic derivatives which inhibit factor Xa” (Zeneca Limited, priority 1997, dated 2002)

O=C(c1ccc(-c2ccncc2)nc1)N1CCN(S(=O)(=O)c2ccc3cc(Br)ccc3c2)CC1 (hydrate or solvate) [Example 1, 1-(6-bromonaphth-2-ylsulphonyl)-4-[6-(4-pyridyl)-nicotinoyl]piperazine]
melting point: 193.5 °C
